Results from ChEMBL document CHEMBL2331203, “Optimization of inhibitors of the tyrosine kinase EphB4. 2. Cellular potency improvement and binding mode validation by X-ray crystallography” (J Med Chem, 2013).

What was measured:
[1] = target: T1, Ephrin type-B receptor 4 (Homo sapiens) (UniProt P54760); assay: Inhibition of EphB4 (unknown origin) transfected in CHO cells using Z'-LYTE TYR-1 peptide as substrate at 10 uM after 2 hrs by FRET assay; format: cell-based
T1 sequence (whole entry): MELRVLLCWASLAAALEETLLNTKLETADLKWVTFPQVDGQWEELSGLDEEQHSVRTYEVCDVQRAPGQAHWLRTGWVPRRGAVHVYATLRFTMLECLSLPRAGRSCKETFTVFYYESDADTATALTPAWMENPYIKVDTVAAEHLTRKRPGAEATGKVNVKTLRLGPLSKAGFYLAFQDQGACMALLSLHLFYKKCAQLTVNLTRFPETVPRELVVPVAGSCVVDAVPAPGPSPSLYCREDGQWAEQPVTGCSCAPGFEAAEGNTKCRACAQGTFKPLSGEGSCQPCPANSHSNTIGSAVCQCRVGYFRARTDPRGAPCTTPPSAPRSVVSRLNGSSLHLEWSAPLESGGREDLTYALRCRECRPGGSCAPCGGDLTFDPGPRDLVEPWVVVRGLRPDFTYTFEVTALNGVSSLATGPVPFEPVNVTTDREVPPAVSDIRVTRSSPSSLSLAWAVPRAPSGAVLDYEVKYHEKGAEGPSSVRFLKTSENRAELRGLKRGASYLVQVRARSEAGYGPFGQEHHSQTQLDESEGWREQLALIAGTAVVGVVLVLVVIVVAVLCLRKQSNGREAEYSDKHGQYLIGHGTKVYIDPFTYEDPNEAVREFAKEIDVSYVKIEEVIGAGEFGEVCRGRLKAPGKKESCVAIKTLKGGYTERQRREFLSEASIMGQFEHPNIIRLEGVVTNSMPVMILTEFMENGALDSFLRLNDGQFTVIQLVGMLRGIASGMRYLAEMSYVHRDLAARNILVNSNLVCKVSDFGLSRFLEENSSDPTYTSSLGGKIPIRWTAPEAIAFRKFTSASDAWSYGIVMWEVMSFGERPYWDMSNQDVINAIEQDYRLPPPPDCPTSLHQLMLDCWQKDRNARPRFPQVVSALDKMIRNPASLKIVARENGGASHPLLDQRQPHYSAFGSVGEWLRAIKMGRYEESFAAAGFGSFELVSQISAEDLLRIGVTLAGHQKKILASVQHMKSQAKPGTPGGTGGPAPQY

DU-145 = assay: Cytotoxicity against human PRXF DU145 cells after 4 days by propidium iodide staining; conditions: DU-145, 96 h
[2] = Cytotoxicity against human LXFA 983L cells after 4 days by propidium iodide staining; conditions: 96 h
[3] = Cytotoxicity against human GXF251L cells after 4 days by propidium iodide staining; conditions: GXF 251L, 96 h
[4] = Cytotoxicity against human PAXF 1657L cells after 4 days by propidium iodide staining; conditions: 96 h
[5] = Cytotoxicity against human CXF 1103L cells after 4 days by propidium iodide staining; conditions: 96 h
[6] = Cytotoxicity against human RXF 393NL cells after 4 days by propidium iodide staining; conditions: 96 h
[7] = Apparent permeability from basolateral to apical side in human Caco2 cells after 2 hrs by LC-MS/MS analysis; format: ADME, cell-based; conditions: Caco-2
[8] = Apparent permeability from apical to basolateral side in human Caco2 cells after 2 hrs by LC-MS/MS analysis; format: ADME, cell-based; conditions: Caco-2
[9] = Permeability from apical to basolateral side in human Caco2 cells assessed as compound recovery after 2 hrs by LC-MS/MS analysis; format: ADME, cell-based; conditions: Caco-2, read-out: permeability
[10] = Permeability from basolateral to apical side in human Caco2 cells assessed as compound recovery after 2 hrs by LC-MS/MS analysis; format: ADME, cell-based; conditions: Caco-2, read-out: permeability
in vitro = conditions: human, Caco-2
Description: Efflux ratio of apparent permeability from basolateral to apical side to apical to basolateral side in human Caco2 cells

K562 = assay: Cytotoxicity against human K562 cells by SRB assay; format: functional
[11] = target: Tyrosine-protein kinase ABL1 (Homo sapiens, UniProt P00519)
Tyrosine-protein kinase ABL1, sequence (P00519 whole entry): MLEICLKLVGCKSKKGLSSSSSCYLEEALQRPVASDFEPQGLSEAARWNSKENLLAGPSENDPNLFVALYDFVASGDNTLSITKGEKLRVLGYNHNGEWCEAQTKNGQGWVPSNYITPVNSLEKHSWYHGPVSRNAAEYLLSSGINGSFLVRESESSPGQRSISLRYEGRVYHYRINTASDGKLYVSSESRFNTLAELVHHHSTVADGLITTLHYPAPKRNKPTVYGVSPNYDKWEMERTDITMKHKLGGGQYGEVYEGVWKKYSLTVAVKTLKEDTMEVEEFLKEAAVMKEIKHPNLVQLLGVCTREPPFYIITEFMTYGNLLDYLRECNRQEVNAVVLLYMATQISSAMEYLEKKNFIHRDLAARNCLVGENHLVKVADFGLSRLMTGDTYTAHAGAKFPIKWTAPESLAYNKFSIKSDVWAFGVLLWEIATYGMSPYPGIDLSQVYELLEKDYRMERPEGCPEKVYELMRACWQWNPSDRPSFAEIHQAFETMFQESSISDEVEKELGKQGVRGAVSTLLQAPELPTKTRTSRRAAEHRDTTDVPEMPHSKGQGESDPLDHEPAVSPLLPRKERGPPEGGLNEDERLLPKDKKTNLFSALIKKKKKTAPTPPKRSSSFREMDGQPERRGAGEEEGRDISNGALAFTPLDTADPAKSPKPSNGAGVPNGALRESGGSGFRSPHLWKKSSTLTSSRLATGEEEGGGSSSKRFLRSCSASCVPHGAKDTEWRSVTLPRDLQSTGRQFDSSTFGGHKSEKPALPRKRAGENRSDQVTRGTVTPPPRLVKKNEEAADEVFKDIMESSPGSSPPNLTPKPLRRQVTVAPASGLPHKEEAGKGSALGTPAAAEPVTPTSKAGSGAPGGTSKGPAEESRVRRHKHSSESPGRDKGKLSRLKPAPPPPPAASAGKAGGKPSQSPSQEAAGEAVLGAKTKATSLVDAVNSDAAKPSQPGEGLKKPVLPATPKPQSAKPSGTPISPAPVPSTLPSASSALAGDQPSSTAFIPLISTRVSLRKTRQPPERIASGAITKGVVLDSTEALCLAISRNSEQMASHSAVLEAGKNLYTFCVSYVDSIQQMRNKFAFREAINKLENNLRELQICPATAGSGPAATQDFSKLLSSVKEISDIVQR
Description: Inhibition of Abl (unknown origin) using [gamma-33P]ATP after 30 mins by radiometric assay

Ephrin type-B receptor 4 = target: T2, Ephrin type-B receptor 4 (Homo sapiens, UniProt P54760)
T2 sequence (P54760 whole entry): T1 sequence (whole entry)
Description: Inhibition of human myc-tagged full length EphB4 expressed in MEF cells assessed as inhibition of ephrinB2-Fc-induced autophosphorylation incubated for 90 mins prior to ephrinB2-Fc-induction measured after 2 hrs by sandwich ELISA

[12] = target: Tyrosine-protein kinase Lck (Homo sapiens, UniProt P06239); assay: Inhibition of Lck (unknown origin) using [gamma-33P]ATP after 30 mins by radiometric assay
Tyrosine-protein kinase Lck, sequence (P06239 whole entry): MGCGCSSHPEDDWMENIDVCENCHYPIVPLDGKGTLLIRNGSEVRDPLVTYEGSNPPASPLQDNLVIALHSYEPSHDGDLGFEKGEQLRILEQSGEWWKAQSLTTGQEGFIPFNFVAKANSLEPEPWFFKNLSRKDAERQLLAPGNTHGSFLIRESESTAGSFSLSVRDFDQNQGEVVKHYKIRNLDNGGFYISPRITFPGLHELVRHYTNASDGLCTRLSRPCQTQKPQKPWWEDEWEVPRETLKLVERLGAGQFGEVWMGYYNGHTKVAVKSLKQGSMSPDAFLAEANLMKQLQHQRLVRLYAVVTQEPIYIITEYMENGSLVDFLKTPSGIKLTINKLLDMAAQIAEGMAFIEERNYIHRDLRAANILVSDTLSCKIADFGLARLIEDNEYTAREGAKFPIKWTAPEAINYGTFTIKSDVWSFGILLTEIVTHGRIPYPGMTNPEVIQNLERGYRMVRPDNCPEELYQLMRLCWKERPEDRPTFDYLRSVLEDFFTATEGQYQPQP

SNB-75 = assay: Cytotoxicity against human SNB75 cells by SRB assay; format: functional
Hs-578T = assay: Cytotoxicity against human Hs578T cells by SRB assay; format: functional
[13] = target: Proto-oncogene tyrosine-protein kinase Src (Homo sapiens, UniProt P12931)
Proto-oncogene tyrosine-protein kinase Src, sequence (P12931 2-536 limits assumed): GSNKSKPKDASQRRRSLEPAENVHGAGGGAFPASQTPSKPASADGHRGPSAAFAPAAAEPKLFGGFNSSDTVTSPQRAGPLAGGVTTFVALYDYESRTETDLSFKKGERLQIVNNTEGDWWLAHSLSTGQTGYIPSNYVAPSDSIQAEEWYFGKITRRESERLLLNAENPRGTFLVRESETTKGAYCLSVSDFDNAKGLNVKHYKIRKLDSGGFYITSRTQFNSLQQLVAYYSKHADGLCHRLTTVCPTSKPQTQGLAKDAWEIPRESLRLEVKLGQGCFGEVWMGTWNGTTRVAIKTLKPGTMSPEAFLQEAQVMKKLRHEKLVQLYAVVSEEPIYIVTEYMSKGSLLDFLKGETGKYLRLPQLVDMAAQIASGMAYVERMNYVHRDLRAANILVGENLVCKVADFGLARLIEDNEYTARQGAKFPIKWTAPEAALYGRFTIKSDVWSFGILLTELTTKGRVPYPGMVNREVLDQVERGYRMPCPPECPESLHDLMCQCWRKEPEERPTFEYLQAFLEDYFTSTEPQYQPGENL
Description: Inhibition of Src (unknown origin) using [gamma-33P]ATP after 30 mins by radiometric assay

For `COc1ccccc1-n1c(-c2cccc(Cl)c2)cn2c3c(=O)[nH]c(=O)n(C)c3nc12`, the inhibition [1] was 12%.
In the case of `Cc1nc(Nc2ncc(C(=O)Nc3c(C)cccc3Cl)s2)cc(N2CCN(CCO)CC2)n1` [DASATINIB], the IC50 (DU-145) is reported as 0.0623 µM, the IC50 [2] is reported as 56.5 nM and the IC50 [3] is reported as 2.25 µM. The IC50 [4] was 0.121 µM, the IC50 [5] was 4.36 µM and the IC50 [6] was 21.7 nM.
Compound `CCCCn1c(-c2ccccc2C(F)(F)F)cn2c3c(=O)[nH]c(=O)n(C)c3nc12` has an inhibition [1] of 15%.
Work on `COc1ccccc1-n1c(-c2ccccc2)cn2c3c(=O)[nH]c(=O)n(C)c3nc12` yielded a Papp B→A at 2 h [7] of 35.8 ×10⁻⁶ cm/s, a Papp A→B at 2 h [8] of 32.3 ×10⁻⁶ cm/s and a recovery at 2 h [9] of 71%. It also gave a recovery at 2 h [10] of 76%.
`CCCCn1c(-c2ccccc2Cl)cn2c3c(=O)[nH]c(=O)n(C)c3nc12` gave an IC50 (DU-145) of 3.18 µM, an IC50 [2] of 1620 nM and an IC50 [3] of 18.2 µM. It also gave an IC50 [4] of 4.94 µM, an IC50 [5] of 1.14 µM and an IC50 [6] of 2930 nM.
`COc1ccccc1-n1c(-c2cc(O)ccc2C)cn2c3c(=O)[nH]c(=O)n(C)c3nc12` showed an efflux ratio (in vitro) of 7.3, a GI50 (K562) of 309 nM and an IC50 (DU-145) of 2.7 µM. It also gave an IC50 [11] of 0.92 nM, an IC50 [2] of 9160 nM and an IC50 (Ephrin type-B receptor 4) of 130 nM. For the same compound, the IC50 [12] was 1.3 nM, the IC50 [3] was 20.2 µM and the Papp B→A at 2 h [7] was 23 ×10⁻⁶ cm/s. For the same compound, the Papp A→B at 2 h [8] was 3.13 ×10⁻⁶ cm/s, the recovery at 2 h [9] was 51% and the GI50 (SNB-75) was 128 nM. It also gave an IC50 [4] of 2.01 µM, a GI50 (Hs-578T) of 562 nM and an IC50 [5] of 32.6 µM. The recovery at 2 h [10] was 74%, the IC50 [6] was 1760 nM and the IC50 [13] was 1.14 nM.
`CCCCn1c(-c2ccccc2)cn2c3c(=O)[nH]c(=O)n(C)c3nc12` showed a Papp B→A at 2 h [7] of 42.5 ×10⁻⁶ cm/s, a Papp A→B at 2 h [8] of 42.5 ×10⁻⁶ cm/s and a recovery at 2 h [9] of 69%. For the same compound, the recovery at 2 h [10] was 78%.
Compound `CCCCCn1c(-c2ccccc2C)cn2c3c(=O)[nH]c(=O)n(C)c3nc12` has an IC50 (DU-145) of 6.97 µM, an IC50 [2] of 2720 nM and an IC50 [3] of 4.98 µM. The IC50 [4] was 5.88 µM, the IC50 [5] was 2.57 µM and the IC50 [6] was 5580 nM.
With `CCCCn1c(-c2cccc(Cl)c2)cn2c3c(=O)[nH]c(=O)n(C)c3nc12` the inhibition [1] was 22%.
`CCCCn1c(-c2ccc(F)cc2C)cn2c3c(=O)[nH]c(=O)n(C)c3nc12` showed an IC50 (DU-145) of 9.59 µM, an IC50 [2] of 6020 nM and an IC50 [12] of 617 nM. The IC50 [3] was 14.9 µM, the IC50 [4] was 9.46 µM and the IC50 [5] was 4.04 µM. The IC50 [6] was 8690 nM.
In the case of `CCCCn1c(-c2c(C)cccc2C)cn2c3c(=O)[nH]c(=O)n(C)c3nc12`, the inhibition [1] is reported as 49%.
